According to US11306100B2, “Spirooxindole compounds as GSK3B inhibitors and process for preparation thereof” (COUNCIL OF SCIENTIFIC & INDUSTRIAL RESEARCH, priority 2017, dated 2022):
Values belong to the molecule of their own block, whether it stands above or below them.

Tests used:
recombinant GSK3β = recombinant GSK3β (Homo sapiens, UniProt P49841); assay: ADP-Glo kinase assay of GSK3β activity; type: biochemical; conditions: for IC50: GSK3β kinase activity
Protocol: Activity of recombinant GSK3β is measured using ADP-Glo Kinase assay according to supplier's standard protocol with minor modifications in 384 well format. Briefly, kinase reaction mixture was prepared by adding […] of recombinant enzyme, 2 μM ATP, 1 μg of enzyme substrate along with test compound or DMSO to a final volume of 5 μl. The kinase reaction was performed by incubating the mixture at room temperature for 17 mins. To correct reaction back ground a substrate blank reaction was also performed. ADP glow reagent (equal volume to reaction mixture) was added to the reaction mixture to deplete any unused ATP added to the kinase reaction and incubated at further 40 min at 27° C. Then 10 μl of kinase detection reagent was added followed by incubation for 30 min at 27° C. to convert ADP to ATP and introduce luciferase to measure kinase activity. The luminescence was measured using luminometer (Perkin Elmer) which is directly proportional to ADP generated in kinase reaction. To determine the amount of ADP produced in kinase reaction and calculate specific activity of the enzyme, a conversion curve is prepared by serial dilution of ADP and ATP mixture. Specific activity of the GSK3β was calculated using the following equation. (ADP(kinase reaction)−ADP(substrate blank)) in mmol)/(Reaction time in min)×(GSK3β in mg).

[1] = tested on: cellular GSK3β signalling in PANC-1 cells; assay: Western blot of GSK3β signalling and NFkB target proteins in PANC-1 cells; type: cell-based
Protocol: The compounds inhibiting GSK3β activity in-vitro added to PANC-1 cells to determine their potential against intracellular GSK3β signalling pathways in cancer cells. Briefly, PANC-1 cells were plated in 60 mm plates (100,000 cells/4 mL) and cultured in the standard DMEM medium containing 10% serum. After culturing for 18 hrs, different concentrations of test compounds or standard controls prepared in DMSO were added to culture media to achieve final concentration 0 to 100 μM of compound to cells. Cells were further continued to grow for 48 h with constant supply of 5% CO2 in humid incubator. The time course (0 to 48 h) experiment was carried out simultaneously with fixed concentration of compound showing 50% growth inhibition. At the end of the experiments, all cells were scraped directly in cold PBS and washed for 3 times before lysis directly in 2D lysis buffer (8M urea, 2M thiourea, 4% CHAPS, 4 mM tris base and 65 mM DTT) for isolation of proteins to perform western blots. The protein concentration was determined by modified Bradford assay.
To perform western blot, protein extracts were separated on 12% SDS-PAGE and electrophoretically (1 mA/cm^2 membrane for 1 hr) transferred onto the nitrocellulose membrane by semi-dry method. After protein transfer, membrane was stained with Ponceau S solution (0.2% Ponceau S in 3% Trichloroacetic acid) for 2 min to see efficiency of electrophoretic transfer. The membrane was destained in ddH2O to visualize the protein bands and further destained with TBST (20 mM Tris, 138 mM NaCl, pH 7.6 and 0.1% Tween 20) for blotting. To avoid non-specific detection of target proteins, blotted membranes were blocked with BSA (3% BSA in TBST solution). All antibodies against specific protein targets of interest were purchased from Cell Signaling Technology, USA if not mentioned specifically. Then the blots were incubated with antibodies prepared in blocking buffer (1:1000 Antibody to blocking buffer dilution) for 18 h with constant shaking at 4° C. Three washing steps in PBS each for 5 mins removed the excess and non-specific antibodies. For visualization, blots were incubated with secondary antibody conjugated to either horseradish peroxidase or alkaline phosphatase [anti-(mouse IgG) or anti-(rabbit IgG), diluted 1:5000 in TBST] for 1 h at room temperature. After three washes in PBS, the reaction was developed either by addition of LumiGLO substrate (Cell Signaling Technology) followed by capturing on X-ray film or addition of chromogenic NBT (nitro-blue tetrazolium chloride) and BCIP (5-bromo-4-chloro-3′-indolyphosphate p-toluidine salt) substrate for alkaline phosphatase developing purple colored bands. The blots were scanned for densitometry performed using Image-J program.

PANC-1 cells [2] = assay: Cell viability, Sulforhodamine B assay; type: cell-based
Protocol: Cell viability was measured using Sulforhodamine B assay. The cytotoxic effect of the compounds with GSK3β inhibitory potential was tested against PANC-1 cells. Initially, the PANC-1 cells were seeded in flat bottom 96-well plate (5000 cells/100 μL) in complete medium and cultured for 18 hrs under standard conditions. After 18 h the cells were treated with either the different concentration of compounds, standard drugs or DMSO as solvent control. The final DMSO concentration to cells was maintained <2% in all cytotoxic assays. Each compound was tested in triplicate and the cytotoxicity was determined as the average of that triplicate. Further, the plates were incubated for another 48 h in an incubator maintained at 37° C. with a constant supply of 5% CO2. The cells were fixed using 10% TCA and incubated for 1 h at 4° C. Then the plates were rinsed carefully with MQ water and air dried at room temperature. To all the wells of MTP plate 0.057% SRB solution was added and kept for approximately 30 min before it was rinsed off using 1% acetic acid. The plates were then air dried and 100 μL of 10 mM tris base was added to each well to solubilize the SRB before absorbance was measured at 510 nm. The measure of absorbance is directly proportional to cell growth and is thus used to calculate % reduction in the rate of cell proliferation according to control DMSO treated cells. All experiments were performed in triplicates; mean % age proliferation values with ±SD were plotted here.

PANC-1 cells [3] = assay: Colony formation (soft agar, clonogenic) assay; type: cell-based; conditions: TRAIL alone, 10 ηg/mL
Protocol: To determine the efficiency of GSK3β inhibitors in combination with the TRIAL on anchorage independent growth of PANC-1 cells soft agar assay were performed. The base agar (0.5%) was prepared by mixing equal amounts of 1% agar with 2× media (20% FBS and 2× antibiotics) filled in 6-well plate. Simultaneously, PANC-1 cells (14000/well) mixed with 2× media containing different concentrations of identified compounds alone or in combination with TRAIL mixed with 0.7% of sterile agar to achieve final concentration of […] top agar. The cell suspension was spread on solidified base agar. Then the plates were incubated in CO2 incubator for 14 days and the cells were fed with fresh media containing respective concentration and combination of TRIAL every 3 days. Upon termination (after 14 days of incubation) plates were stained with 0.005% of crystal violet for 1 h and excess stain was removed by washing with MQ. The number of blue colonies were counted using olympus Xi71 microscope.

Sequence of recombinant GSK3β (P49841 whole entry): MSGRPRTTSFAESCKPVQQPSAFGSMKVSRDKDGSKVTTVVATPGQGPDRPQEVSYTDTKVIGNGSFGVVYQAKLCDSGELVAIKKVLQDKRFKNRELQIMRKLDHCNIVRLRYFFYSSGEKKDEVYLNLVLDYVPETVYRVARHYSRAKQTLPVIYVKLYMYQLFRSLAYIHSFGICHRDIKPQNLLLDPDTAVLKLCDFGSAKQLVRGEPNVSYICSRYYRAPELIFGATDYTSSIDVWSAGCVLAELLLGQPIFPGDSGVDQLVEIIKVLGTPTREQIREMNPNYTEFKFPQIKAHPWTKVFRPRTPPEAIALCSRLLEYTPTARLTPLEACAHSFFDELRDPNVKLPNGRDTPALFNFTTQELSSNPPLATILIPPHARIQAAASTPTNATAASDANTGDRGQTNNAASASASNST

melting point: 170.6 °C
Molecule: O=C1Nc2ccccc2C12COC(CI)C2 (stereo not shown) [6a, 5-(Iodomethyl)-4,5-dihydro-2H-spiro[furan-3,3′-indolin]-2′-one]

inhibition of GSK3β in in-vitro kinase assays (recombinant GSK3β): potent inhibition
IC50 (recombinant GSK3β; 2 μM ATP): 3.59 ± 0.98 µM
melting point: 175 to 177 °C
Molecule: O=C1Nc2ccccc2C12COC(Cn1cc(-c3ccccc3)nn1)C2 (stereo not shown) [AB-C, 5-((4-Phenyl-1H-1,2,3-triazol-1-yl)methyl)-4,5-dihydro-2H-spiro[furan-3,3′-indolin]-2′-one]
phosphorylation of GSK3β ([1]; PANC-1 cells treated with compound): significantly decreased
β-catenin level ([1]; PANC-1 cells versus control (DMSO)): accumulation of β-catenin
effectiveness against cell growth (PANC-1 cells [2]; FIG. 3B, low concentration of TRAIL (1 ηg/mL)): not effective compared to remaining compounds
effectiveness against cell growth / sensitisation to TRAIL (PANC-1 cells [2]; in combination with TRAIL (10 ηg/mL), FIG. 3A): less effective compared to other molecules

IC50 (recombinant GSK3β; 2 μM ATP): 5.44 ± 1.49 µM
Molecule: CC(C)(O)c1cn(CC2CC3(CO2)C(=O)Nc2ccccc23)nn1 (stereo not shown) [AB-E, 5-((4-(2-Hydroxypropan-2-yl)-1H-1,2,3-triazol-1-yl)methyl)-4,5-dihydro-2H-spiro[furan-3,3′-indolin]-2′-one]

IC50 (recombinant GSK3β; 2 μM ATP): 4.68 ± 0.6 µM
melting point: 133 to 134 °C
Molecule: CCOC(=O)c1cn(CC2CC3(CO2)C(=O)Nc2ccccc23)nn1 (stereo not shown) [AB-F, Ethyl-1-((2′-oxo-4,5-dihydro-2H-spiro[furan-3,3′-indoline]-5-yl)methyl)-1H-1,2,3-triazole-4-carboxylate]

IC50 (recombinant GSK3β; 2 μM ATP): 4.91 ± 0.56 µM
melting point: 126 to 128 °C
Molecule: O=C1Nc2ccccc2C12COC(CN1CCOCC1)C2 (stereo not shown) [AB-K, 5-(Morpholinomethyl)-4,5-dihydro-2H-spiro [furan-3, 3′-indolin]-2′-one]

IC50 (recombinant GSK3β; 2 μM ATP): 4.06 ± 1.67 µM
Molecule: O=C1Nc2ccccc2C12COC(CN1CCSCC1)C2 (stereo not shown) [AB-L, 5-(Thiomorpholinomethyl)-4,5-dihydro-2H-spiro[furan-3,3′-indolin]-2′-one]

melting point: 120 to 122 °C
Molecule: COC(=O)c1ccc(-c2cc(Cl)ccc2OCc2cn(CC3CC4(CO3)C(=O)Nc3ccccc34)nn2)nc1C (stereo not shown) [AB-N, Methyl-6-(5-chloro-2-((1-((2′-oxo-4,5-dihydro-2H-spiro[furan-3,3′-indoline]-5-yl)methyl)-1H-1,2,3-triazol-4-yl)methoxy)phenyl)-2-methylnicotinate]

IC50 (recombinant GSK3β; 2 μM ATP): 4.93 ± 0.53 µM
Molecule: O=Cc1ccccc1OCc1cn(CC2CC3(CO2)C(=O)Nc2ccccc23)nn1 (stereo not shown) [AB-P, 2-((1-((2′-Oxo-4,5-dihydro-2H-spiro[furan-3,3′-indoline]-5-yl)methyl)-1H-1,2,3-triazol-4-yl)methoxy)benzaldehyde]

melting point: 141 to 143 °C
Molecule: O=C1Nc2ccccc2C12COC(CN1CCN(Cc3ccccc3)CC1)C2 (stereo not shown) [AB-R, 5-((4-Benzylpiperazin-1-yl)methyl)-4,5-dihydro-2H-spiro[furan-3,3′-indolin]-2′-one]

melting point: 132 to 135 °C
Molecule: CCOC(=O)c1ccc(-c2cc(Cl)cc(Cl)c2OCc2cn(CC3CC4(CO3)C(=O)Nc3ccccc34)nn2)nc1C (stereo not shown) [AB-W, Ethyl6-(3,5-dichloro-2-((1-((2′-oxo-4,5-dihydro-2H-spiro[furan-3,3′-indoline]-5-yl)methyl)-1H-1,2,3-triazol-4-yl)methoxy)phenyl)-2-methylnicotinate]

melting point: 130 to 132 °C
Molecule: O=C1Nc2ccccc2C12COC(CN1CCN(c3ccccc3)CC1)C2 (stereo not shown) [AB-X, 5-((4-Phenylpiperazin-1-yl)methyl)-4,5-dihydro-2H-spiro[furan-3,3′-indolin]-2′-one]

IC50 (recombinant GSK3β; 2 μM ATP): 6.53 ± 0.52 µM
Molecule: CC(=O)Nc1ccccc1 [Acetanilide, reference compound]

IC50 (recombinant GSK3β): 3990 µM
Molecule: [Cl-].[Li+] [Licl, LiCl, reference compound]

IC50 (recombinant GSK3β; 2 μM ATP): 6.46 ± 0.63 µM
Molecule: O=C1Cc2ccccc2N1 [Oxindole]

IC50 (recombinant GSK3β): 0.0176 µM
Molecule: Cc1ccc([N+](=O)[O-])cc1S(=O)(=O)N(C)/N=C/c1cnc2ccc(Br)cn12 [PIK-75, reference compound]

B1: TRAIL: Tumor necrosis factor-related apoptosis-inducing ligand (TRAIL) (protein, UniProt P50591 1-281, looked up)
Tumor necrosis factor ligand …: MAMMEVQGGPSLGQTCVLIVIFTVLLQSLCVAVTYVYFTNELKQMQDKYSKSGIACFLKEDDSYWDPNDEESMNSPCWQVKWQLRQLVRKMILRTSEETISTVQEKQQNISPLVRERGPQRVAAHITGTRGRSNTLSSPNSKNEKALGRKINSWESSRSGHSFLSNLHLRNGELVIHEKGFYYIYSQTYFRFQEEIKENTKNDKQMVQYIYKYTSYPDPILLMKSARNSCWSKDAEYGLYSIYQGGIFELKENDRIFVSVTNEHLIDMDHEASFFGAFLVG
cell death in PANC-1 cells (PANC-1 cells [2]; TRAIL alone (10 ηg/ml)): did not cause any significant cell death
inhibition of colony formation (PANC-1 cells [3]): did not show effective inhibition on colony formation
